Paper PMC8980233, “Differentiating the Neuropharmacological Properties of Nicotinic Acetylcholine Receptor-Activating Alkaloids” (Frontiers in Pharmacology, 2022)
Entries after “also recorded” stand apart in the source; their conditions may differ.

How the values were obtained:
[1] = tested on: C57Bl/6 mice; experiment: Tolerability test (body weight, body temperature, passive signs, manipulation responses); conditions: for BT (°C) naïve / Manipulations naïve / Passive naïve: baseline; for BW Day 1 / BW Day 2: mean ± SD
Protocol: In brief, mice were single-housed prior to the test and evaluated for baseline body weight, body temperature, and other parameters. […] On day 1, the mice were i. p. injected with saline (vehicle) or a test compound at 10 ml/kg body weight. Then, body temperature was measured at 15 min, 4 h, and 24 h and body weight on days 1 and 2. Neurological and motor parameters were evaluated at 15 min, 2 h, and 4 h after administration. The list of parameters is provided in Supplementary Figure S1 in Supplementary Material S1.
In addition, within 5 min after the 15-min observation period, mice were placed in open-field chambers for 30 min to determine their general motor activity (distance traveled), ambulatory time, and number of rears. The open-field chambers were made of Plexiglas (27.3 × 27.3 × 20.3 cm; Med Associates Inc, St Albans, VT, United States) surrounded by infrared photobeam sources (16 × 16 × 16 beams). Horizontal activity (distance and time traveled) and vertical activity (number and frequency of rears) were measured by consecutive beam breaks. At the end of each open-field test session, the chambers were thoroughly cleaned with NOLVASAN® solution (Zoetis Services LLC, Parsippany, NJ, United States). Four mice were used per treatment condition. Mice were terminated after completion of the last tolerability observation.
All compounds were diluted in saline, and the pH was adjusted to approximately 7.0 with HCl or NaOH on the day of the experiment. […] The doses were calculated based on the free base molecular weight of the compounds.
For the tolerability tests, passive signs and manipulation responses were analyzed for effects of the treatment by the Kruskal–Wallis test. Body temperature and body weight data were analyzed by two-way repeated measures analysis of variance (ANOVA). The total distance and time traveled and number and frequency of rears in the open-field activity test were analyzed by one-way ANOVA, followed by the Tukey post-hoc test. For the analyses of the zebrafish NTT data, one-way ANOVA was used, followed by Dunnett’s multiple comparison test, if it passed the Shapiro-Wilk normality test. […] An effect was considered significant if p < 0.05. The half maximal effective concentration (EC50) and half-maximal inhibitory concentration (IC50) for the receptor pharmacology and neurotransmitter release assay were determined by using nonlinear regression analysis. Statistical analyses were conducted using GraphPad Prism.

[2] = tested on: C57Bl/6 mice; experiment: SmartCube behavioral profiling; format: in vivo; conditions: single i.p. injection
Source text: The SmartCube^ ® system is a unique mouse behavior profiling system developed by PsychoGenics Inc. It extracts over 2000 spontaneous and challenge-induced behavioral features during a session ([Alexandrov et al., 2015]; [Alexandrov et al., 2016]). The recorded behavioral parameters are then compared against the behavioral profiles of marketed reference compounds in the database, and the test compounds are classified into known drug classes using PsychoGenics’ proprietary bioinformatics algorithms. In brief, mice were i. p. injected with vehicle or test compound at 10 ml/kg body weight and placed in the SmartCube^ ® arena (24 cm × 25 cm) 15 min later. Spontaneous and stimulus-induced behaviors of mice were recorded using force sensors distributed throughout the arena during a 45-min test session. In addition, three high-resolution video cameras provided a constant 3-dimensional (3D) view of the mouse behavior in the SmartCube^ ® arena throughout the testing period. The bedding was vacuumed, and the arena was cleaned with NOLVASAN^ ® solution between each run. Data from the SmartCube^ ® test were processed using PsychoGenics’ proprietary Computer Vision feature extraction, Bayesian probabilistic density models, and data mining algorithms, trained on a large library of reference compounds with known therapeutic indications to predict the underlying class of each test compound ([Alexandrov et al., 2015]; [Alexandrov et al., 2016]). Twelve mice were tested per condition. Mice were terminated after the completion of the SmartCube^ ® test.
The doses were calculated based on the free base molecular weight. The doses were selected based on the tolerability test results.

[3] = biological target: T1, α3β4 nAChR (Homo sapiens, UniProt P30926+P32297); experiment: nAChR functional assay, automated patch-clamp; format: cell-based
T1 sequence (P32297 32-505): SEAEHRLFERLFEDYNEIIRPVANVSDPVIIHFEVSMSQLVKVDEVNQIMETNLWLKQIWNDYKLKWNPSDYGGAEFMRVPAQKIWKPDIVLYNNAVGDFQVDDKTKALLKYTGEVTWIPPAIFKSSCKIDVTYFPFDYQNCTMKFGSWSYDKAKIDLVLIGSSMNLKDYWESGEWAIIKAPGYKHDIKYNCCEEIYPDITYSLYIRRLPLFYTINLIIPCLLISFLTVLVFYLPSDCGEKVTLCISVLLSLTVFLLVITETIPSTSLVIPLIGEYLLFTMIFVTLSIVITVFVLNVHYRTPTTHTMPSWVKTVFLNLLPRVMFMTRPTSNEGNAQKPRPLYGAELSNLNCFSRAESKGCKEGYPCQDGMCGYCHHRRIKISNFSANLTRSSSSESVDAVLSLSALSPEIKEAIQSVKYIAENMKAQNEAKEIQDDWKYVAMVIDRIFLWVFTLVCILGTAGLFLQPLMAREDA
T1 sequence (P30926 22-498): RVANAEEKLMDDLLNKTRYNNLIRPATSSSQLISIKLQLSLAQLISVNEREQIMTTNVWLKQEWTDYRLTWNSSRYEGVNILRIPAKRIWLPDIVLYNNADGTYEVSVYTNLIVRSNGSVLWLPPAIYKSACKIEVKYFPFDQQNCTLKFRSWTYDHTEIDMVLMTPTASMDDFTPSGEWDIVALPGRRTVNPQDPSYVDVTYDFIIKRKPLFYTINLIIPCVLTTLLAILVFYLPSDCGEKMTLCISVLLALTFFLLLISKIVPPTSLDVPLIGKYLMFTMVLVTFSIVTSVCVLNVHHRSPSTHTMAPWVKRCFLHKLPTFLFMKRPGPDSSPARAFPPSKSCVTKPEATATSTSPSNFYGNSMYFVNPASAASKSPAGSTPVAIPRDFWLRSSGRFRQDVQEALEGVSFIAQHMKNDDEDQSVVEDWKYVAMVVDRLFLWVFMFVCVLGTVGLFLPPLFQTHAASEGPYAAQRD
Protocol: The following selection antibiotics were used for the cell lines: G418 (0.25 mg/ml; Sigma-Aldrich) and Zeocin^TM (0.4 mg/ml; InvivoGen, San Diego, CA, United States) for α7/Ric3 nAChR and α3β4 nAChR cells; puromycin (8 μg/ml; InvivoGen) and hygromycin B (0.4 mg/ml; Gibco) for α4β2 nAChR cells; and G418 (0.5 mg/ml), puromycin (0.25 μg/ml), and hygromycin B (0.02 mg/ml) for α6/3β2/β3 nAChR cells. […] The human nAChRs were selected due to the lack of commercially available nAChR expression systems for mouse or zebrafish.
Data were analyzed using the Patchmaster software and corrected for leak current. The data acceptance criteria were as follows: seal resistance >100 MΩ; seal resistance loss variation <50%; access resistance <20 MΩ; and minimum current amplitude elicited by maximal effect concentration acetylcholine >50 pA. Offline data analysis was performed in OpenOffice™ (v4.1.2; The Apache Software Foundation, Wakefield, MA, United States). […] Igor Pro (v6.2.2.2; WaveMetrics, Lake Oswego, OR, United States) or Prism (v8.2.1) were used for assessing the concentration–response curves.

[4] = biological target: T1, α3β4 nAChR; experiment: Radioligand displacement binding assay
Protocol: All binding and functional assays for molecular target characterization were conducted by Eurofins Cerep SA (Celle-Lévescault, France) and Eurofins Panlabs Discovery Services Taiwan, Ltd. (New Taipei City, Taiwan) using their standard in vitro binding and functional assays (Supplementary Material S2). […] Negative values were considered to be an artifact arising from, for example, compounds interfering with the assay readout.
The radioligand displacement binding assays employed the gold standard filtration method using membrane preparations from stable cell lines (HEK-293 or CHO cells) expressing human or rodent target proteins to determine the interaction of the compounds with specific receptors, channels, and transporters. For this purpose, the competitive binding of test compounds against a [^125I]- [^3H]-, or [^35S]-labelled agonist and/or antagonist was determined. The specific list of radiolabeled ligands and experimental conditions are summarized in Supplementary Material S2.

[5] = mean ± S.D., no effect = up to 33 μM

## CN1CCC[C@H]1c1cccnc1 [Nicotine, (-)-Nicotine]
[1]; 0.25 mg/kg group
  BT (°C) naïve: 37.83 ± 0.15 °C
  Manipulations naïve: 0.00 ± 0.00
  Passive naïve: 0.00 ± 0.00
[1]; 0.25 mg/kg i.p.
  BT (°C) 15min: 37.48 ± 0.98 °C
  BT (°C) 4hr: 36.88 ± 0.97 °C
  BT (°C) 24hr: 36.43 ± 0.87 °C
  Manipulations 15min: 0.00 ± 0.00
  Manipulations 2hr: 0.00 ± 0.00
  Manipulations 4hr: 0.00 ± 0.00
  Passive 15min: 0.00 ± 0.00
  Passive 2hr: 0.00 ± 0.00
  Passive 4hr: 0.00 ± 0.00
  BW Day 1: 24.54 ± 0.97
  BW Day 2: 24.33 ± 0.99
[1]; 0.5 mg/kg group
  BT (°C) naïve: 37.93 ± 0.17 °C
  Manipulations naïve: 0.00 ± 0.00
  Passive naïve: 0.00 ± 0.00
[1]; 0.5 mg/kg i.p.
  BT (°C) 15min: 36.48 ± 0.90 °C
  BT (°C) 4hr: 36.50 ± 0.44 °C
  BT (°C) 24hr: 36.65 ± 0.41 °C
  Manipulations 15min: 0.00 ± 0.00
  Manipulations 2hr: 0.00 ± 0.00
  Manipulations 4hr: 0.00 ± 0.00
  Passive 15min: 0.00 ± 0.00
  Passive 2hr: 0.00 ± 0.00
  Passive 4hr: 0.00 ± 0.00
  BW Day 1: 24.58 ± 0.93
  BW Day 2: 24.76 ± 1.20
[1]; 1 mg/kg group
  BT (°C) naïve: 37.90 ± 0.16 °C
  Manipulations naïve: 0.00 ± 0.00
  Passive naïve: 0.00 ± 0.00
[1]; 1 mg/kg i.p.
  BT (°C) 15min: 33.53 ± 0.85 °C
  BT (°C) 4hr: 36.55 ± 0.48 °C
  BT (°C) 24hr: 36.53 ± 0.31 °C
  Manipulations 15min: 0.00 ± 0.00
  Manipulations 2hr: 0.00 ± 0.00
  Manipulations 4hr: 0.00 ± 0.00
  Passive 15min: 0.00 ± 0.00
  Passive 2hr: 0.00 ± 0.00
  Passive 4hr: 0.00 ± 0.00
  body temperature 15 min after the injection: decreased the body temperature
  BW Day 1: 24.55 ± 0.94
  BW Day 2: 24.10 ± 0.61
[2]; highest dose 0.5 mg/kg body weight
  SmartCube drug classification / behavioral features: anxiolytic-like behavior features

## CN1C(=O)CC[C@H]1c1cccnc1 [Cotinine, (-)-cotinine]
[1]; mouse, in vivo, ip, 10 mg/kg
  tolerability: well tolerated
[2]; all doses tested
  SmartCube drug classification / behavioral features: no detectable effect
[3]; [5]
  α3β4 nAChR EC50 in µM: no detectable activities; also recorded: No effect *
[4]
  binding for α3β4 nAChR: undetectable

## C1=CCC(c2cccnc2)NC1 (racemic) [Anatabine, (±)-Anatabine]
[1]; 1 mg/kg group
  BT (°C) naïve: 37.95 ± 0.13 °C
  Manipulations naïve: 0.00 ± 0.00
  Passive naïve: 0.00 ± 0.00
[1]; 1 mg/kg i.p.
  BT (°C) 15min: 36.98 ± 0.41 °C
  BT (°C) 4hr: 36.65 ± 0.33 °C
  BT (°C) 24hr: 36.88 ± 0.43 °C
  Manipulations 15min: 0.00 ± 0.00
  Manipulations 2hr: 0.00 ± 0.00
  Manipulations 4hr: 0.00 ± 0.00
  Passive 15min: 0.00 ± 0.00
  Passive 2hr: 0.00 ± 0.00
  Passive 4hr: 0.00 ± 0.00
  BW Day 1: 24.46 ± 2.30
  BW Day 2: 24.64 ± 2.56
[1]; 2 mg/kg group
  BT (°C) naïve: 37.83 ± 0.15 °C
  Manipulations naïve: 0.00 ± 0.00
  Passive naïve: 0.00 ± 0.00
[1]; 2 mg/kg i.p.
  BT (°C) 15min: 35.28 ± 0.49 °C
  BT (°C) 4hr: 36.48 ± 0.49 °C
  BT (°C) 24hr: 36.45 ± 0.30 °C
  Manipulations 15min: 0.00 ± 0.00
  Manipulations 2hr: 0.00 ± 0.00
  Manipulations 4hr: 0.00 ± 0.00
  Passive 15min: 0.00 ± 0.00
  Passive 2hr: 0.00 ± 0.00
  Passive 4hr: 0.00 ± 0.00
  BW Day 1: 24.64 ± 1.69
  BW Day 2: 24.89 ± 2.21
[1]; 4 mg/kg group
  BT (°C) naïve: 38.08 ± 0.05 °C
  Manipulations naïve: 0.00 ± 0.00
  Passive naïve: 0.00 ± 0.00
[1]; 4 mg/kg i.p.
  BT (°C) 15min: 33.92 ± 0.30 °C
  BT (°C) 4hr: 36.30 ± 0.40 °C
  BT (°C) 24hr: 36.63 ± 0.17 °C
  Manipulations 15min: 0.00 ± 0.00
  Manipulations 2hr: 0.00 ± 0.00
  Manipulations 4hr: 0.00 ± 0.00
  Passive 15min: 0.00 ± 0.00
  Passive 2hr: 0.00 ± 0.00
  Passive 4hr: 0.00 ± 0.00
  body temperature 15 min after the injection: decreased the body temperature
  BW Day 1: 24.73 ± 1.23
  BW Day 2: 24.43 ± 1.13
[2]; all doses tested
  SmartCube drug classification / behavioral features: no detectable effect
[3]; [5]
  EC50: 70.6 ± 8.2 µM
[3]; preliminary, data not shown
  % of the full receptor activity, α3β4 nAChR: ~40%
[4]
  IC50: 0.96 ± 0.2 µM
